Read-outs that look alike come from different tables or passages of the source.

One assay has as its system JNK. The note with it: H4IIE cells, data not shown. An excerpt:
Members of the DUSP family show differing specificities for the MAPK family of kinases. DUSP4 has been previously shown to dephosphorylate and inactivate the MAPK family members ERK and JNK, but not p38.
(§1) FIG. 7A includes a Western blot probed with anti-p38 or anti-phosphor-p38 antibodies (Cell Signaling Technology) at a 1:1000 dilution.

The next assay has as its target T1, p38 (Rattus norvegicus, UniProt P70618).
T1 construct: addition of cAMP to serum starved H4IIE cells for 2 hours leads to an increase in the phosphorylation of p38; endogenous in cells; host or cells: H4IIE rat hepatoma cells
The experiment in a line: Western blot of p38 phosphorylation in serum starved H4IIE cells. Type of assay: cell-based. The note with it: 2 hours. The protocol:
(§2) Panel A is a Western blot of H4IIE cells starved for 6 hours and then treated as indicated by the chart for 2 hours. […] is a specific p38 chemical inhibitor. LPS is included as a positive control of p38 activation.
as §1
Background: A western blot detects proteins with antibodies after separation by electrophoresis.

In a further assay the test system is DUSP4 message. The conditions noted are these: AML12, 500 μM AICAR. As to the method:
(§3) Each gene is represented by a single row and each sample, in triplicate at each time point, by a column. […] The mean expression±STD of DUSP4 (qualifier #1428834_at) and EGR1 (qualifier #1417065_at) are illustrated graphically as well as highlighted in yellow on the cluster.
(§4) AML12 cells were maintained in DMEM/F12 medium containing 10% FCS, […], 5 ng/ml selenium and 40 ng/ml dexamethasone.
(§5) Double-stranded cDNA was synthesized starting with 5 μg of total RNA from the cells using the SuperScript System (Invitrogen, Carlsbad, Calif.). The cDNA was purified by filtration through Multiscreen filter plate (Millipore), and transcribed in vitro using T7 RNA polymerase (Epicentre, Madison, Wis.) and biotinylated nucleotides (Perkin-Elmer, Boston, Mass.). Hybridization buffer containing the spike pool reagent was added to each of the fragmented cRNA mixtures and each sample was hybridized to the Mouse Genome 430 2.0 array ([…]) or Rat Genome 230 2.0 array (RAE230) (Affymetrix, Santa Clara) at 45° C. for 18 hours as recommended by the manufacturer. The hybridized chips were washed and stained using Affymetrix Fluidics Station 450 and the EukGE-WS2v4—450 protocol as recommended by the manufacturer. The staining was performed using streptavidin-phycoerythrin conjugate (SAPE; Molecular Probes, Eugene, Oreg.), followed by biotinylated antibody against streptavidin (Vector Laboratories, Burlingame, Calif.), and then SAPE. The chips were scanned using an Affymetrix Genechip Scanner and .cel files were generated with Affymetrix Microarray Suite 5.0 (MAS 5.0) software.
(§6) Using normalized data, after removing lowly expressed genes, we performed ANOVA analysis.

For another assay, the system named is EGR1 message. The conditions noted are these: AML12, 500 μM AICAR. The protocol: as §3, §4, §5, §6
The subject of the next assay is DUSP4 protein. The conditions noted are these: H4IIE. As to the method: (§7) As in FIG. 2, the anti-tubulin blot is a loading control.
Lysates were prepared with a buffer containing 20 mM Tris (pH 7.5), 150 mM NaCl, 1 mM EDTA, 1 mM EGTA, 1% Triton X-100, 2.5 mM sodium pyrophosphate, 1 mM β-glycerophosphate, 1 mM sodium vanadate, and 1 μg of leupeptin/ml. 20 μg of lysate for each sample was run on NuPAGE 10% polyacrylamide bis/tris gels (Invitrogen) and transferred to PVDF membrane. Following blocking with 5% milk in TBS, anti-EGR1 (SC-110, Santa Cruz) at 1:1000 or anti alpha-tubulin (Abcam) at 1:2000 was blotted in TBS with 0.1% Tween. Goat anti-mouse HRP (Jackson Immuno-Research) was used at 1:5000 and blots were visualized by using enhanced chemiluminescence (NEN).
(§8) Taqman was utilized since the DUSP4 probe set on the RAE430 2.0 array was not as sensitive as the DUSP4 set on the MOE430 2.0 array.

Assay [1] deals with rat DUSP4 promoter EGR1 site. The note with it: H4IIE, AICAR 2 or 6 hours.
Description: Arrows indicate sites of primers used for chromatin immunoprecipitation assay (−72 to −261 bp from the transcriptional start site).
To cross-link protein and DNA, formaldehyde was added at a 1% (vol/vol) concentration to H4IIE cells in a 100 mm dish. Fixation proceeded for 10 min at room temperature with gentle shaking and was stopped with the addition of glycine to a final concentration of 0.125M, and then the mixture was incubated at room temperature for 5 min. The cells were then washed twice with cold phosphate-buffered saline (PBS), harvested, and washed once with PBS containing PMSF. The cell pellet was lysed with immunoprecipitation assay lysis buffer (150 mM NaCl, 1% NP-40, 0.5% deoxycholate, 0.1% sodium dodecyl sulfate [SDS], 50 mM Tris [pH 8], 5 mM EDTA and protease inhibitors [1 mM PMSF, 10 μg of aprotinin/ml, 10 μg of leupeptin/ml]) and incubated on ice for 10 min. The resulting lysate was sonicated to give chromatin of an average length of 600 to 1,000 bp. The lysate was then microcentrifuged at 14,000 rpm for 10 min at 4° C. The lysate was then precleared with 50 μl of protein A beads (IPA 400; Repligen) for 15 min. Immunoprecipitations were performed overnight with 2 μg of antibody in a total volume of 500 μl at 4° C. […] A 5 μl aliquot was analyzed by PCR with Vent polymerase (NEB). […]
The subject of a further assay is G6P and PEPCK expression. The note with it: rat hepatoma cells or primary hepatocytes (Lochhead et al. 2000); cited from earlier work.
A further assay has as its system Fao hepatoma cells. The experiment in a line: Glucose production assay in Fao cells. Type of assay: cell-based. The conditions noted are these: cAMP plus dexamethasone, 500 μM AICAR. As to the method:
For the experiment shown in panel A, Fao cells were transfected with either EGR1 or DUSP4 siRNA Smartpools. […] The cells were then cultured with phenol-red and glucose free RPMI1640 with 20 mM lactate and 2mM pyruvate. After 3 hours the media was collected and glucose output was determined. The data are presented as relative glucose production with the untreated transfected cells' glucose output set as 1. The asterisk indicates key changes between samples. P-values of all changes are ≦0.01 as determined by T-test. Panel B contains Western blots of EGR1 and DUSP4 or representative samples from the glucose production assay following transfection with the indicated siRNA Smartpools. The tubulin blot is included as a loading control.
1 million Fao cells cultured in RPMI1640 with 10% FCS were transfected with siGenome SMARTpool reagents for EGR1 (#M-100247-00), DUSP4 (#M-098966-00), or siCONTROL Non-Targeting siRNA (Dharmacon) using Optifect (Invitrogen) at 25 nM final concentration. […] Medium was collected 5 hours later and subjected to glucose measurement using the Amplex® Red Glucose/Glucose Oxidase Assay Kit (Molecular Probes). Cells were lysed and protein concentration was determined. The glucose output rate was normalized by cellular protein concentration and expressed as μg glucose/mg protein/5 hr. […]

Another assay has as its system EGR1 expression. The conditions noted are these: H4IIE, AICAR. As to the method: The anti-tubulin blot is a loading control.
as §5
Total RNA was isolated from these cells and hybridized on the RAE430 2.0 array and analyzed in the same manner as the AML12 cells.

In a further assay the test system is rat PEPCK promoter. The experiment in a line: PEPCK-SEAP reporter assay in H4IIE cells. Format: cell-based. The protocol: FIG. 5 schematically depicts the effects of EGR1 and DUSP4 expression levels on PEPCK promoter activity. For the experiments shown in panels A and B, H4IIE hepatocytes were transfected with the PEPCK-SEAP reporter plasmid and either DUSP4 or EGR1 expression plasmids or DUSP4 or EGR1 siRNA Smartpools. 24 hours after transfection the media were changed to 0.5%FBS/DMEM for 5 hours. […] Panel A depicts the effects of EGR1 modulation on PEPCK promoter activity; panel B depicts the effects of DUSP4 modulation on PEPCK promoter activity.
as §2
The rat PEPCK promoter (−548 to +73) was amplified from rat genomic DNA using primers 5′-[…]-3′ (SEQ ID NO:8) and 5′-[…]-3′ (SEQ ID NO:9) (Xu et al. (2003)) J. Biol. Chem. 278:30187-30192). The human G6P promoter (−1227 to +57) was amplified from human genomic DNA using primers: 5′-[…]-3′ (SEQ ID NO:10) and 5′-[…]-3′ (SEQ ID NO:11). The promoters were subsequently cloned into XhoI and HindIII sites of pSEAP-BASIC vector (Clontech).
H4IIE cells were seeded in 24-well plates and transfected at 90% confluence using Tfx-50 Reagent (Promega). 0.9 μg of each SEAP reporter and 0.2 μg of pCMV-β-gal (BD Biosciences) were included. 0.4 μg of pCMV-XL5-human-DUSP4 (NM_001394, Origene) or pCMV-Sport6-human EGR1 (BC073983, Open Biosystems), or pMEV2HA-P38-WT and P38-EE (Biomyx), or empty pCMV-Sport6 were included. SiGenome Smartpool reagents were included at […]. […] 60 μl of the media was utilized for the SEAP assay (Great EscAPe SEAP Kit, BD Biosciences) and cell lysate was used for β-gal assay (Luminescent β-galactosidase detection kit, BD Biosciences).

The next assay concerns DUSP4 mRNA. The conditions noted are these: H4IIE, AICAR.
Description: as §7, §8

A further assay concerns EGR1. The note with it: Bauer et al. 2005; cited from earlier work.

T1 sequence (P70618 whole entry): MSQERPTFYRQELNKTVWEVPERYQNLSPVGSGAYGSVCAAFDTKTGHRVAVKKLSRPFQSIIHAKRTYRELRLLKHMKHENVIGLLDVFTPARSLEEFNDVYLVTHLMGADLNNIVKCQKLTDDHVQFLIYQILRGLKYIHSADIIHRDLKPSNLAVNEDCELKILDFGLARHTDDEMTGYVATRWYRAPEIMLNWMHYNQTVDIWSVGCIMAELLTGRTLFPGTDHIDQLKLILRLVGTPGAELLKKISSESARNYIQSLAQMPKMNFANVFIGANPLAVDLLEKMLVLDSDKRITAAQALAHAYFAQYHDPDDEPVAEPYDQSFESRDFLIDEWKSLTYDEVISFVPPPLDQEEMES

Consider `NC(=O)c1ncn([C@@H]2O[C@H](CO)[C@@H](O)[C@H]2O)c1N` [AICAR], for which the JNK activity entry in the assay on JNK is “not inhibited”. Also, on p38, the “cAMP-induced phosphorylation of p38 (Western blot)” value is “inhibited”. Also, the “DUSP4 message increase relative to untreated controls” value in the assay on DUSP4 message (2 hours) was 4 fold; in the assay with DUSP4 message (6 hours), 6 fold; with DUSP4 message (24 hours), 5 fold. For the same molecule, the “EGR1 increase relative to control” value in the assay on EGR1 message (2 hours) amounted to 3 fold; with EGR1 message (6 hours) it was 3 fold; in the assay on EGR1 message (24 hours), 2 fold. For the same molecule, in the assay with DUSP4 protein (AICAR), the “Time of AICAR treatment within which DUSP4 is induced” value is not above 2 h. In addition, the “DUSP4 protein level (Western blot)” value with DUSP4 protein (AICAR time course, decrease to more basal levels at 12 hours) was “increase of DUSP4 protein at 2 and 6 hours”. Besides, the “EGR1 site of DUSP4 promoter amplified after anti-EGR1 chromatin immunoprecipitation (189 bp PCR product)” value in [1] is listed as “amplified”. In addition, the “Expression of G6P and PEPCK” value with G6P and PEPCK expression was “inhibits expression G6P and PEPCK”. The “Glucose output after inhibition, distance from untreated levels” value in the assay on Fao hepatoma cells is listed as not above 30%. For the same molecule, the “EGR1 expression increase relative to control” value in the assay with EGR1 expression (2 hours) was 6 fold; with EGR1 expression (6 hours), 5 fold; with EGR1 expression (24 hours), 3 fold. Also, the “Inhibition of PEPCK activation at low AICAR concentration” value in the assay with rat PEPCK promoter (100 μM AICAR by itself) was “not sufficient to inhibit PEPCK activation”. In addition, the “PEPCK transcription (activation)” value in the assay on rat PEPCK promoter (100 μM AICAR, without exogenous EGR1) was 12 fold. Moreover, the “Repression of cAMP and dexamethasone activation of PEPCK reporter” value in the assay on rat PEPCK promoter (AICAR, control siRNA included) is “fully repressed”. Moreover, the “Effect on cAMP activation of the PEPCK promoter” value in the assay with rat PEPCK promoter (FIG. 7B) is listed as “repress cAMP activation of the PEPCK promoter”. Also, in the assay on rat PEPCK promoter (PEPCK-SEAP, AICAR 500 μM or DUSP4 expression vector), the “Inhibition of cAMP and dexamethasone activation of the PEPCK promoter” value is “approximately 36 fold”. Further, the DUSP4 message increase in the assay with DUSP4 mRNA (2 hours) is listed as 20 fold; in the assay with DUSP4 mRNA (6 hours), 4 fold; in the assay with DUSP4 mRNA (24 hours) it was 4 fold.
Consider `CCCCCCCCCCCCCC(=O)O[C@@H]1[C@@H](C)[C@@]2(O)[C@@H](C=C(CO)C[C@]3(O)C(=O)C(C)=C[C@@H]23)[C@@H]2C(C)(C)[C@]12OC(C)=O` [TPA, 12-O-tetradecanoylphorbol-13-acetate], for which the EGR1 biosynthesis result in the assay on EGR1 is given as “strongly upregulates EGR1 biosynthesis”.
Turning to SB205830, on p38, the “cAMP-induced phosphorylation of p38 (Western blot)” value is listed as “inhibited”.
